# Assay results as given in patent US8815842B2 (priority 2006, dated 2014).
# Read-outs that look alike come from different tables or passages of the source.
# Tests used:
# [1] = tested on: foot-and-mouth disease virus serotype A; assay type: cell-based
# [2] = black-haired Japanese cattle, bovine, in vivo, po, 100 mg/kg
# [3] = tested on: foot-and-mouth disease virus serotype Asia 1; assay type: cell-based
# [4] = tested on: foot-and-mouth disease virus (O/JPN/2000 strain); experiment: microbe, parasite or virus in culture; assay type: cell-based; settings: in Sus scrofa, 72 h, read-out: plaque formation 50% inhibitory rate (IC50)
# [5] = pig, in vivo, po, 100 mg/kg
# [6] = tested on: foot-and-mouth disease virus serotype C; assay type: cell-based
# Vero cells = experiment: cells; assay type: cell-based; settings: Chlorocebus sabaeus, 96 h, read-out: 50% cell growth inhibitory concentration (IC50)
# [7] = tested on: foot-and-mouth disease virus; settings: pig, in vivo
# [8] = Corriedale, sheep, in vivo, po, 100 mg/kg
compound,measurement,setting,value
"NC(=O)c1nccnc1O [T-1105, 3-oxo-3,4-dihydro-2-pyrazinecarboxamide]",25% or more inhibitory concentration,[1],0.313 µg/mL
same,Plasma concentration 2 hrs after administration,[2],7.86 µg/mL
same,Plasma concentration 8 hrs after administration,[2],0.173 µg/mL
same,25% or more inhibitory concentration,[3],0.625 µg/mL
same,IC50,[4],1.6 µg/mL
same,Plasma concentration 2 hrs after administration,[5],75.0 µg/mL
same,Plasma concentration 8 hrs after administration,[5],36.4 µg/mL
same,25% or more inhibitory concentration,[6],1.25 µg/mL
same,IC50,Vero cells,≥ 250 µg/mL
same,"change in appearance (lameness, dysstasia, blister formation in feet)",[7],no change in their appearance
same,"plasma viral load, in words",[7],remained at the detection limit or bellow
same,"viral load in the nasal swab, in words",[7],scarcely increased
same,clinical sign,[7]; 400 mg/kg/day,−
same,plasma viral load,[7]; 400 mg/kg/day,<0.14 TCID50/μL
same,toxic finding during the administration period,[7]; 400 mg/kg/day,no toxic finding
same,viral load in the nasal swab,[7]; 400 mg/kg/day,<0.07 TCID50/μL of swab solution
same,Plasma concentration 2 hrs after administration,[8],30.9 µg/mL
same,Plasma concentration 8 hrs after administration,[8],10.2 µg/mL
